Measurements as given in US6342079B1, “Primary intermediate for use in oxidative hair dyeing” (Bristol-Myers Squibb Company, priority 2000, dated 2002).

Assays:
[1] = Storage stability of the free base; type: physicochemical; settings: for long term storage stability: extended storage
Solubility in water = type: physicochemical
[2] = as described in U.S. Pat. Nos. 5,599,353 and 5,538,516; cited from earlier work

SMILES	long term storage stability [1]	solubility in water (Solubility in water)	stability in free base form compared with 2-(2-hydroxyethyl)-p-phenylenediamine [1]	sensitization potential compared with p-phenylenediamine (Sensitization potential)	sensitization potential [2]
Nc1ccc(N)c(CCO)c1 [2-(2-hydroxyethyl)-p-phenylenediamine, reference compound]	not sufficiently stable				
CC(O)c1cc(N)ccc1N (stereo not drawn) [1-(2,5-Diaminophenyl)ethanol, 1-(2,5-diaminophenyl)ethanol]	excellent	excellent	significantly more stable	much less susceptible to cause sensitization	
Nc1ccc(N)cc1 [p-phenylenediamine]					strong
